Here are results for three compounds from ChEMBL document CHEMBL4229357, “1-Aroylindoline-hydroxamic acids as anticancer agents, inhibitors of HSP90 and HDAC” (Eur J Med Chem, 2018).

Assay [1] addresses T1, Heat shock protein HSP90 (Homo sapiens) (UniProt P07900+P08238). Description: Inhibition of HSP90 in human HL60 cells assessed as downregulation of phosphorylated Akt expression after 24 hrs by Western blot analysis. Format: cell-based. In general terms: A western blot detects proteins with antibodies after separation by electrophoresis.
Assay [2] addresses T1, Heat shock protein HSP90 (Homo sapiens). Description: Inhibition of HSP90 in human HL60 cells assessed as induction of HSP70 expression after 24 hrs by Western blot analysis. It counts as cell-based.
Assay [3] has the same target. The assay is described as follows: Inhibition of HSP90 in human HL60 cells assessed as downregulation of phosphorylated Akt expression at 1 uM by Western blot analysis. Format: cell-based. The conditions noted are these: TDE = time-dependent effect.
Assay [4] has the same target. The assay is described as follows: Inhibition of HSP90 in human HL60 cells assessed as downregulation of phosphorylated STAT3 expression after 24 hrs by Western blot analysis. Format: cell-based.
For assay [5] the target is unchanged. Description: Inhibition of HSP90 in human HL60 cells assessed as downregulation of phosphorylated STAT3 expression at 1 uM by Western blot analysis. Format: cell-based. As to conditions: TDE = time-dependent effect.
Assay [6] shares this target. Description: Inhibition of HSP90 in human HL60 cells assessed as induction of HSP70 expression at 1 uM by Western blot analysis. It counts as cell-based. As to conditions: TDE = time-dependent effect.
The test system of another assay is HL-60. The assay is described as follows: Antiproliferative activity against human HL60 cells after 48 hrs by sulforhodamine B assay. It counts as functional.
The next assay relates to A549. Description: Antiproliferative activity against human A549 cells after 48 hrs by sulforhodamine B assay. Format: functional. In general terms: In SRB staining, fixed cells bind dye roughly in proportion to their protein.
The test system of a further assay is HCT-116. The assay is described as follows: Antiproliferative activity against human HCT116 cells after 48 hrs by sulforhodamine B assay. The conditions noted are these: HCT-116, 48 h. Format: functional.
Another assay relates to NCI-H1975. Description: Antiproliferative activity against human NCI-H1975 cells after 48 hrs by sulforhodamine B assay. As to conditions: NCI-H1975, 48 h. It counts as functional.
Another assay concerns the target Histone deacetylase. Format: protein assay, Homo sapiens.
Assay [7] has as its target T2, Histone deacetylase (Homo sapiens) (UniProt Q13547+O15379+Q9UBN7+Q92769+Q9UQL6+Q8WUI4+Q9BY41+Q96DB2+P56524+Q9UKV0+Q969S8). The assay is described as follows: Inhibition of HDAC in human HL60 cells assessed as upregulation of acetyl-alpha-tubulin levels at 1 uM after 24 hrs by Western blot analysis. It counts as cell-based.
The target of assay [8] is T2, Histone deacetylase (Homo sapiens). The assay is described as follows: Inhibition of HDAC in human HL60 cells assessed as upregulation of acetylated histone H3 levels at 1 uM after 24 hrs by Western blot analysis. Format: cell-based.
The target in assay [9] is Heat shock protein HSP 90-alpha (Homo sapiens, UniProt P07900). The assay is described as follows: Inhibition of FITC-geldanamycin binding to HSP90alpha (unknown origin) after 3 hrs by fluorescence polarization assay. (In general: In fluorescence polarisation assays a small probe gives low polarisation when free and higher when bound to something large.)

Activity calls are given as the source filed them. The calls are words filed in the database; no cut-off is given here.

Regarding `CC(C)c1cc(C(=O)N2CCc3cc(NC(=O)CCCCCCC(=O)NO)ccc32)c(O)cc1O`, the inhibition result in assay [1] was “Dose-dependent effect”; in assay [2], “Dose-dependent effect”; in [3], “Tde”; in [4], “Dose-dependent effect”; in [5] it was “Tde”; in [6], “Tde”.
In general, GI50 refers to the concentration giving 50% growth inhibition. Higher therefore signals lower sensitivity of the cells. As usually defined, the IC50 is the midpoint of a concentration-inhibition curve. For the compound `COc1c(C)cnc(Cn2cnc3c(Cl)nc(N)nc32)c1C` [BIIB021], the 50% growth inhibitory concentration (GI50) in the assay with HL-60 (Homo sapiens, HL-60, 48 h) was found to be 590 nM; in the assay on A549 (Homo sapiens, A549, 48 h) it was 330 nM; in the assay on HCT-116, 150 nM; in the assay with NCI-H1975, 380 nM. The compound further displayed a half-maximal inhibitory concentration (IC50) against Histone deacetylase of more than 1000 nM. Besides, the inhibition result in assay [7] and in [8] was “Active” each time.
Regarding `O=C(CCCCCCC(=O)Nc1ccccc1)NO` [VORINOSTAT], the GI50 is 1740 nM with HL-60, 1020 nM in the assay with A549, 150 nM with HCT-116 and 1410 nM in the assay on NCI-H1975. Also, the IC50 in [9] is more than 1000 nM.
